Values after ≈ are worked out from the molar mass of the structure shown. Values joined by “and” are separate entries in the source; they are usually repeats but may differ in a detail not shown here. Identical values can stand only once.

Experimental findings from article PMC10733349, “Synthesis and in-vitro anti-proliferative with antimicrobial activity of new coumarin containing heterocycles hybrids” (Scientific Reports, 2023) are described below.

One series deals with pseudomonas aeruginosa. Description: Antimicrobial microplate assay (MIC), P. aeruginosa. Type of series: cell-based. The text has this:
(§1) Microbial strains: Escherichia coli, pseudomonas aeruginosa, Staphylococcus aureus, Streptococcus mutans and Candida albicans were collected from the microbial culture collection of Biopharmaceutical Products Research Department, Genetic Engineering and Biotechnology Research Institute, SRTA-City, New Borg El-Arab city, Alexandria, Egypt.
(§2) The antimicrobial activity of coumarin hybrids samples were checked against different multiple drug resistant microorganisms (Escherichia coli, pseudomonas aeruginosa, Staphylococcus aureus and Streptococcus mutans and Candida albicans) using various concentrations (30 to 100 µM). An aliquot of 100.0 µl of each sample concentration was added to an equal volume of each microbial growth dilution (about 10^6 CFU/ml) and inoculated into 96 well plate. Furthermore, 100.0 µl of LB media was added to 100.0 µl of microbial growth to set as the negative control group. After that, the inoculated plates were incubated overnight at 37 °C then, the microbial turbidity was measured using automated ELIZA microplate reader (BINDER BIOTECK E LX 800) adjusted at 620 nm. The microbial inhibition percentage after treatments were quantified using the following equation:1 Inhibition percentage=A-A1/A0×100. where, A: the treatment group absorbance, A1: the blank absorbance, and A0: the control group absorbance.

The subject of the next series is Streptococcus mutans. Description: Antimicrobial microplate assay (MIC), S. mutans. Type of series: cell-based. The conditions noted are these: two values per compound.
Source text: as §1, §2

The test system of another series is Staphylococcus aureus. Briefly: Antimicrobial microplate assay (MIC), S. aureus. Type of series: cell-based. The following applies: Staph. aureus, two values per compound.
Source text: as §1, §2

In another series the test system is A549 cell line. Briefly: MTT anti-proliferative assay, A549. It counts as cell-based, Human. The following applies: for IC50: Homo sapiens, A549, 48 h, A549, MTT, 2 days. The text has this:
(§3) Cell lines; WISH cell line (Human amnion-derived normal epithelial cells, CCL-25), MDA-MB-231 cell line (Human, mammary gland/breast adenocarcinoma, HTB-26), CaCo-2 cell line (Human Colorectal adenocarcinoma, epithelial cells, HTB-37), A549 cell line (Human Lung adenocarcinoma, epithelial cells, CCL-185) cell lines and HepG-2 (liver hepatocellular carcinoma, HEPG2, HB-8065) were obtained from ATCC, originally with license and serial numbers as mentioned.
(§4) The safety assays of coumarin hybrids on noncancerous cell lines and their anticancer effects on cancerous cells were gauged utilizing MTT-assay (Promega) in accordance with the instruction protocol. Starting from 60 to 200 µM, serial dilutions of coumarin hybrids were prepared in sterile DMSO to be treated cell lines at final concentrations 30 to 100 µM. The treated cells were incubated for 2 days, and the cellular cytotoxicity was detected by quantifying the solubilized formazan in DMSO at 570 nm. The inhibition concentration of 50 (IC50) was calculated from the cytotoxicity% curve using GraphPad prism 9.
(§5) Cancer cell selectivity index of Coumarin hybrids samples were measured as explained by, with a minor modification; (SI = IC50nc/IC50cc), where IC50nc refers to the value of IC50 of the coumarin hybrids compounds on normal cells, while IC50cc refers to the IC50 of the coumarin hybrids compounds on cancer cell line.
In general terms: Formazan colour is commonly taken as a measure of viable cells.

A further series has as its system CaCo-2 cell line. Description: MTT anti-proliferative assay, CaCo-2. It counts as cell-based, Human. The conditions noted are these: for IC50: CaCo-2, MTT, 2 days; for Selective index: SI = IC50 normal cells (WISH)/IC50 CaCo-2.
Source text: as §3, §4, §5

The next series deals with HepG-2. Briefly: MTT anti-proliferative assay, HepG-2. It counts as cell-based, human. The conditions noted are these: for IC50: Homo sapiens, HepG2, 48 h, HepG-2, MTT, 2 days; for Selective index: SI = IC50 normal cells (WISH)/IC50 HepG-2.
Source text: as §3, §4, §5

A further series has as its system WISH cell line. Description: MTT safety assay on WISH normal cells. It counts as cell-based, Human. The conditions noted are these: Homo sapiens, 48 h, 2 days.
Source text: as §3, §4

The test system of a further series is MDA-MB-231 cell line. Description: MTT anti-proliferative assay, MDA-MB-231. It counts as cell-based, Human. The conditions noted are these: for IC50: Homo sapiens, MDA-MB-231, 48 h, MDA-MB-231, MTT, 2 days; for Selective index: SI = IC50 normal cells (WISH)/IC50 MDA-MB-231.
Source text: as §3, §4, §5

For the next series, the system named is Candida albicans. Description: Antimicrobial microplate assay (MIC), C. albicans. The following applies: two values per compound. It counts as cell-based.
Source text: as §1, §2

A further series has as its system Escherichia coli. Briefly: Antimicrobial microplate assay (MIC), E. coli. It counts as cell-based. The conditions noted are these: two values per compound.
Source text: as §1, §2

Turning to `O=C(NCCNc1c2ccccc2nc2ccccc12)c1cc2ccccc2oc1=O` [10b, N-(2-(Acridin-9-ylamino)ethyl)-2-oxo-2H-chromene-3-carboxamide], the MIC in the series with pseudomonas aeruginosa is 14.8 µM (≈ 6.06 µg/mL); in the series on Streptococcus mutans (Streptococcus mutans), 3.2 to 66 µM (≈ 1.31 to 27 µg/mL); in the series with Streptococcus mutans, 5 µM and 5.5 µM; against Staphylococcus aureus, 3.2 µM (≈ 1.31 µg/mL); in the series with Staphylococcus aureus (Staphylococcus aureus), 3.2 to 66 µM (≈ 1.31 to 27 µg/mL).
Regarding `O=C(NCCCNc1c2ccccc2nc2ccccc12)c1cc2ccccc2oc1=O` [10c, N-(3-(Acridin-9-ylamino)propyl)-2-oxo-2H-chromene-3-carboxamide], the melting point fell in the range of 261 to 263 °C. The molecule further came in with a minimal inhibitory concentration (MIC) in the series on pseudomonas aeruginosa of 15.4 µM (≈ 6.52 µg/mL). In the series with A549 cell line, this molecule yielded an IC50 of 130 µM. For the same molecule, in the series with CaCo-2 cell line, the midpoint of inhibition, the IC50, lay at 56.7 µM and the Selective index was found to be 0.77. Further, in the series on CaCo-2 cell line (listed as 10), the IC50 was 145 µM and the Selective index worked out at 0.7785. In the series with HepG-2, 107 µM corresponded to half-maximal inhibition (IC50) and the Selective index amounted to 0.5533. The molecule further returned an IC50 in the series with WISH cell line of 56.7 µM. In the series with MDA-MB-231 cell line, this molecule returned a half-inhibitory concentration (IC50) of 109 µM and a Selective index of 0.8462.
`O=C(NNc1ccnc2cc(Cl)ccc12)c1cc2ccccc2oc1=O` [7a, N'-(7-Chloroquinolin-4-yl)-2-oxo-2H-chromene-3-carbohydrazide] yielded a melting point of 294 to 296 °C. Moreover, the MIC against Candida albicans (Candida albicans) came to 62 µM (≈ 22.7 µg/mL). Further, the minimal inhibitory concentration (MIC) against Candida albicans is recorded as 61 µM (≈ 22.3 µg/mL). Besides, in the series on Streptococcus mutans (Streptococcus mutans), the MIC was 248 µM (≈ 90.7 µg/mL). The minimum inhibitory concentration (MIC) against Streptococcus mutans was found to be 246 µM (≈ 90 µg/mL). Besides, in the series with A549 cell line, 51.7 µM corresponded to half-maximal inhibition (IC50). Also, the Selective index in the series with A549 cell line (SI = IC50 normal cells (WISH)/IC50 A549) is 1.5 and 1.533. The half-inhibitory concentration (IC50) in the series on CaCo-2 cell line (Homo sapiens, Caco-2, 48 h) was 57.1 µM. For the same molecule, the Selective index with CaCo-2 cell line is 1.38 and 1.39. In addition, the MIC with Staphylococcus aureus is reported as 31 µM (≈ 11.3 µg/mL). For the same molecule, in the series with Staphylococcus aureus (Staphylococcus aureus), the MIC was found to be 30 µM (≈ 11 µg/mL). In the series with HepG-2, this molecule registered an IC50 of 75.4 µM and a Selective index of 1.051. The minimal inhibitory concentration (MIC) in the series on Escherichia coli (Escherichia coli) turned out to be 29 µM (≈ 10.6 µg/mL). This molecule also came in with an MIC in the series with Escherichia coli of 28 µM (≈ 10.2 µg/mL). In the series with WISH cell line, inhibition was half-maximal at 79.3 µM (IC50). Moreover, in the series with MDA-MB-231 cell line, the IC50 was 211 µM and the Selective index is recorded as 0.3752.

For orientation: MIC means the least concentration at which growth counts as inhibited. The term IC50 denotes the midpoint of a concentration-inhibition curve. Low readings indicate higher potency, high ones lower potency. As usually defined, the melting point is the temperature, or range, at which the solid turns liquid.
